{"source": "patent US6245917A", "about": "“Crystalline sodium phenytoin monohydrate” (Warner-Lambert Company, priority 1999, dated 2001)", "key": {"[1]": {"assay": "Intrinsic dissolution in 90% ethanol/10% water", "type": "physicochemical", "settings": "for concentration, average: average of runs", "experimental": "(§1) Dissolutions were carried out in a standard Van-Kel dissolution bath. The medium was either water, 90% water/10% ethanol, or 95% water/5% ethanol. For nonintrinsic dissolution experiments, SPM and SPA powders were sieved and fractions that passed through a 75 μm sieve were used. For intrinsic dissolution experiments, tablets were prepared in a standard Woods apparatus by compression of 400 mg of material at 3000 psig for 1 minute.\n(§2) Each experiment was carried out by placing 900 mL of medium into one of the Van-Kel dissolution vessels and allowing it to equilibrate at 37° C. The test materials were added (powder or tablet) and samples were withdrawn by syringe at the specified times (see Table 4). Each sample was filtered through a 0.2μ nylon syringe filter. Three dissolution experiments were carried out for each lot of suspension.\n(§3) For intrinsic dissolution experiments, the test material is compressed into a tablet and the tablet (still in the die) is lowered into the dissolution medium. In this way, a consistent surface area, the tablet face, is presented to the medium. […] Therefore, tablets of SPM and SPA were prepared, removed from the die, crushed into powders, and examined by XRPD.\nIntrinsic dissolution experiments were then carried out in 90% ethanol/10% water. The tablets dissolved very quickly in this medium, resulting in rapid deformation of the tablet faces. Occasionally pieces of solid broke free of the tablets and sank to the bottom of the dissolution vessel. Within 15-40 minutes the tablets had dissolved completely. Because of this behavior, consistent surface areas were not maintained during the course of the experiments. The result was a high degree of imprecision in the concentrations measured (Table 6).\n(§4) Samples were analyzed by high-performance liquid chromatography (HPLC) on a BAS 480 HPLC system equipped with a UV/VIS detector and a TSP AS 100 autosampler, and controlled with INJECT software. A Phenomenex Hypersil C18 BDS column (5μ particle size, 4.6×150 mm) was used. The mobile phase was prepared by mixing water, methanol, and acetic acid in a 60:40:0.5 volume ratio. Analyses were carried out at a flow rate of 1 mL/minute with the UV/VIS detector set at 254 nm. The injection volume was 5 μL.\n(§5) A standard solution consisting of 74.8 μg/mL of sodium phenytoin in mobile phase was injected three times before and three times after each series of analyses. Each unknown sample was injected three times without dilution. The peak areas at 254 nm were recorded and averaged for each time point. The amount of sodium phenytoin in solution at each time point was calculated from the line equation of the calibration curve: […]"}, "[2]": {"assay": "Nonintrinsic dissolution in water", "type": "physicochemical", "experimental": "as §1, §2\nThe rates of dissolution of SPM and SPA were compared. […] These studies were conducted by slurrying sieved (<75 μm) sodium phenytoin powder in pure water and measuring the concentrations in solution at various times by HPLC. Unfortunately, solid crystallized from the solutions withdrawn for analysis as they cooled, rendering the data invalid for determination of dissolution rate. Even so, all of the samples withdrawn contained about 5 mg/mL of sodium phenytoin, including those withdrawn 5 minutes after the slurries were prepared. […] A decrease in the concentration of dissolved sodium phenytoin with time is consistent with the reported reaction of sodium phenytoin with acids, even carbonic acid formed by dissolution of atmospheric carbon dioxide in water, to give relatively water-insoluble phenytoin.\nas §4, §5"}, "[3]": {"type": "physicochemical", "experimental": "Both SPM and SPA were analyzed by x-ray powder diffraction (XRPD), infrared (IR) spectroscopy, solid-state nuclear magnetic resonance (SSNMR) spectroscopy, differential scanning calorimetry (DSC) and thermogravimetric analysis (TGA). The XRPD patterns of SPM and SPA are quite different and distinguishable. While the IR and SSNMR spectra of SPM and SPA are different, the differences are subtle. SPM and SPA behave quite differently on both DSC and TGA thermal analyses. SPA undergoes endothermic transitions at 364° C. and 409° C. that are accompanied by a weight loss of 72%."}, "[4]": {"assay": "Solid form interconversion under tableting pressure (XRPD)", "type": "physicochemical", "settings": "XRPD of crushed tablets", "experimental": "as §1, §3"}, "[5]": {"assay": "Drying of SPM under low pressure, XRPD of resulting solid", "type": "physicochemical", "settings": "about 1 torr, ambient temperature, 24 hours", "experimental": "Any residual dichloromethane should evaporate readily from the solid under ambient conditions. To determine if solvent evaporation could be ensured by drying under low-pressure conditions, a portion of the SPM sample was kept under about 1 torr pressure at ambient temperature for 24 hours."}}}
{"smiles": "O=C1NC(=O)C(c2ccccc2)(c2ccccc2)N1", "note": "[SPA, sodium phenytoin anhydrate, reference compound]", "values": [{"measurement": "concentration, Run 1", "setting": "[1]; 1 min", "result": 1.73, "unit": "µg/mL"}, {"measurement": "concentration, Run 2", "setting": "[1]; 1 min", "result": 1.68, "unit": "µg/mL"}, {"measurement": "concentration, Run 3", "setting": "[1]; 1 min", "result": 3.36, "unit": "µg/mL"}, {"measurement": "concentration, average", "setting": "[1]; 1 min", "result": 2.26, "unit": "µg/mL"}, {"measurement": "concentration, Run 1", "setting": "[1]; 5 min", "result": 11.71, "unit": "µg/mL"}, {"measurement": "concentration, Run 2", "setting": "[1]; 5 min", "result": 12.24, "unit": "µg/mL"}, {"measurement": "concentration, Run 3", "setting": "[1]; 5 min", "result": 19.91, "unit": "µg/mL"}, {"measurement": "concentration, average", "setting": "[1]; 5 min", "result": 14.62, "unit": "µg/mL"}, {"measurement": "concentration, Run 1", "setting": "[1]; 10 min", "result": 23.27, "unit": "µg/mL"}, {"measurement": "concentration, Run 2", "setting": "[1]; 10 min", "result": 23.84, "unit": "µg/mL"}, {"measurement": "concentration, Run 3", "setting": "[1]; 10 min", "result": 57.43, "unit": "µg/mL"}, {"measurement": "concentration, average", "setting": "[1]; 10 min", "result": 34.84, "unit": "µg/mL"}, {"measurement": "concentration, Run 1", "setting": "[1]; 20 min", "result": 47.05, "unit": "µg/mL"}, {"measurement": "concentration, Run 2", "setting": "[1]; 20 min", "result": 60.83, "unit": "µg/mL"}, {"measurement": "concentration, Run 3", "setting": "[1]; 20 min", "result": 144.62, "unit": "µg/mL"}, {"measurement": "concentration, average", "setting": "[1]; 20 min", "result": 87.17, "unit": "µg/mL"}, {"measurement": "concentration, Run 1", "setting": "[1]; 40 min", "result": 112.23, "unit": "µg/mL"}, {"measurement": "concentration, Run 2", "setting": "[1]; 40 min", "result": 139.74, "unit": "µg/mL"}, {"measurement": "concentration, Run 3", "setting": "[1]; 40 min", "result": 193.12, "unit": "µg/mL"}, {"measurement": "concentration, average", "setting": "[1]; 40 min", "result": 148.36, "unit": "µg/mL"}]}
{"smiles": "O=C1NC(=O)C(c2ccccc2)(c2ccccc2)N1", "note": "[SPM, sodium phenytoin monohydrate]", "values": [{"measurement": "amount of sodium phenytoin at extended reaction times versus earlier samples", "setting": "[2]; 24 and 72 hours", "result": "appeared to be less than the amount found in the earlier samples"}, {"measurement": "dissolution rate in water", "setting": "[2]; nonintrinsic dissolution experiments", "result": "high enough that differences could not be determined"}, {"measurement": "sodium phenytoin in samples withdrawn", "setting": "[2]; pure water, including 5 minutes after slurries were prepared, data invalid for dissolution rate", "result": "about 5 mg/mL"}, {"measurement": "dissolution in water", "setting": "[2]; sieved powder (<75 μm), pure water", "result": "dissolve rapidly and extensively in water"}, {"measurement": "stability and physical properties compared with sodium phenytoin anhydrate", "setting": "[3]", "result": "greatly improved stability and physical properties"}, {"measurement": "concentration, average", "setting": "[1]; 1 min, monohydrate", "result": 3.30, "unit": "µg/mL"}, {"measurement": "concentration, Run 1", "setting": "[1]; 1 min, monohydrate", "result": 2.42, "unit": "µg/mL"}, {"measurement": "concentration, Run 2", "setting": "[1]; 1 min, monohydrate", "result": 2.21, "unit": "µg/mL"}, {"measurement": "concentration, Run 3", "setting": "[1]; 1 min, monohydrate", "result": 5.26, "unit": "µg/mL"}, {"measurement": "time to complete dissolution of tablets", "setting": "[1]; 90% ethanol/10% water", "result": "15 to 40", "unit": "min"}, {"measurement": "dissolution rate relative to SPA", "setting": "[1]; 90% ethanol/10% water, high degree of imprecision", "result": "dissolves more rapidly than does SPA"}, {"measurement": "concentration, average", "setting": "[1]; 5 min, monohydrate", "result": 39.46, "unit": "µg/mL"}, {"measurement": "concentration, Run 1", "setting": "[1]; 5 min, monohydrate", "result": 44.78, "unit": "µg/mL"}, {"measurement": "concentration, Run 2", "setting": "[1]; 5 min, monohydrate", "result": 25.24, "unit": "µg/mL"}, {"measurement": "concentration, Run 3", "setting": "[1]; 5 min, monohydrate", "result": 48.38, "unit": "µg/mL"}, {"measurement": "concentration, average", "setting": "[1]; 10 min, monohydrate", "result": 92.38, "unit": "µg/mL"}, {"measurement": "concentration, Run 1", "setting": "[1]; 10 min, monohydrate", "result": 99.18, "unit": "µg/mL"}, {"measurement": "concentration, Run 2", "setting": "[1]; 10 min, monohydrate", "result": 70.05, "unit": "µg/mL"}, {"measurement": "concentration, Run 3", "setting": "[1]; 10 min, monohydrate", "result": 107.91, "unit": "µg/mL"}, {"measurement": "concentration, Run 2", "setting": "[1]; 15 min", "result": 120.28, "unit": "µg/mL"}, {"measurement": "concentration, Run 3", "setting": "[1]; 15 min", "result": 153.22, "unit": "µg/mL"}, {"measurement": "concentration, average", "setting": "[1]; 15 min", "result": 136.75, "unit": "µg/mL"}, {"measurement": "concentration, average", "setting": "[1]; 20 min, monohydrate", "result": 166.11, "unit": "µg/mL"}, {"measurement": "concentration, Run 1", "setting": "[1]; 20 min, monohydrate", "result": 166.11, "unit": "µg/mL"}, {"measurement": "solid form interconversion under pressure used to make tablets", "setting": "[4]", "result": "no solid form interconversion occurred"}, {"measurement": "form change on drying under low pressure", "setting": "[5]", "result": "these conditions caused dehydration"}]}
